Here are results for 2 compounds from US20180071354A1, “SELECTIVE BREEDING METHOD OF ANTITUMOR/ANTICANCER CAMELLIA SINENSIS STRAIN, AND TEA PRODUCT OF SUCH STRAIN” (FUJIAN AGRICULTURE AND FORESTRY UNIVERSITY, priority 2015, published 2018).

Structures are written as SMILES. In brackets after ≈: the same amount, converted by molar mass.

Holding throughout (type): cell-based
Assay [1] concerns human prostate cancer cell line PC-3. Briefly: In vitro antitumor/anticancer testing (CCK-8), PC-3. The following applies: Homo sapiens, 48 h. Here is the method:
Each of Tea Product 1 and Conventional Tea Product obtained in section A of this example was used to prepare test tea samples according to the method described below. A proper amount of the respective tea product was added into sterile water to prepare a stock solution with a concentration of 100 mg/mL, followed by using a membrane filter with a pore size of 0.22 μm to conduct vacuum filtration and sterilization. The resulting stock solution was diluted with a respective complete medium shown in Table 3 below to form test tea samples with different concentrations. In other words, the thus obtained test tea samples to be used for treating a respective cancer/tumor cell line shown in Table 3 were prepared using the same complete medium as that for the respective cancer/tumor cell line.
Specifically, each of the aforesaid commercially available agents was subjected to the method described below to prepare comparative test samples. A proper amount of a respective commercially available agent was dissolved in phosphate-buffered saline (PBS) to prepare a stock solution with a concentration of 5 mg/mL, followed by using a membrane filter with a pore size of 0.22 μm to conduct vacuum filtration and sterilization. The resulting stock solution was diluted with a respective complete medium shown in Table 3 below to form comparative test samples with different concentrations. To be specific, the comparative test samples prepared from the respective commercially available agent have the concentrations shown in Table 2 below. The thus obtained comparative test samples to be used for treating a respective cancer/tumor cell line shown in Table 3 were prepared using the same complete medium as that for the respective cancer/tumor cell line.
The following cancer/tumor cells purchased from Chinese Academy of Sciences, Shanghai Institutes for Biological Sciences, Institute of Biochemistry and Cell Biology were used for in vitro antitumor/anticancer testing: human liver cancer cell line HepG2, human ovarian cancer cell line SK-OV-3, human cervical cancer cell line Hela, human lung cancer cell line A549, human glioblastoma cell line U-87MG, human mammary gland/duct cancer cell line BT-474, human prostate cancer cell line PC-3, human leukemia cell line HL-60, human gastric cancer cell line SMMC-7721, human colon cancer cell line HCT-116, human squamous cell carcinoma cell line A431, human leukemia cell line K562, human pancreatic cancer cell line PANC-1, and human gastric cancer cell line BGC-823.
The cultivation of each cancer/tumor cell line is described as follows. The cancer/tumor cancer cells were cultivated in the respective complete medium supplemented with 100 μg/mL penicillin and 100 μg/mL streptomycin in an incubator (37° C., 100% relative humidity, 5% CO2). When adherent cancer/tumor cells reached 80% confluence during the log-phase, cell detachment was conducted using 0.6 mL of 0.3% trypsin. Afterwards, a cell suspension having a cell density of 1.0×10^4 cells/mL was prepared. 100 μL of the cell suspension (i.e. 1000 cancer/tumor cells) was added into wells of a 96-well plate (Cat. No. 3599, Corning Costar), followed by cultivation in an incubator (37° C., 100% relative humidity, 5% CO2) for 24 hours.
As experimental groups, the tumor/cancer cells of each cell line were treated with the test tea samples prepared from one or more of the tea products and the comparative test samples prepared from one or more of the commercially available agents as obtained in section B of this example (for more detailed information about the tea product(s) and the commercially available product (s) used to treat each cell line, please see Table 4 below). To be specific, 6 to 10 test tea samples prepared from the same tea product and having different concentrations, as well as 6 to 10 comparative test samples prepared from the same commercially available agent and having different concentrations, were utilized to treat the tumor/cancer cells of each cell line. […]

Assay [2] deals with human mammary gland/duct cancer cell line BT-474. Briefly: In vitro antitumor/anticancer testing (CCK-8), BT-474. The following applies: Homo sapiens, BT-474, 48 h. The protocol:
(§1) Each of Tea Product 1 and Conventional Tea Product obtained in section A of this example was used to prepare test tea samples according to the method described below. A proper amount of the respective tea product was added into sterile water to prepare a stock solution with a concentration of 100 mg/mL, followed by using a membrane filter with a pore size of 0.22 μm to conduct vacuum filtration and sterilization. The resulting stock solution was diluted with a respective complete medium shown in Table 3 below to form test tea samples with different concentrations. In other words, the thus obtained test tea samples to be used for treating a respective cancer/tumor cell line shown in Table 3 were prepared using the same complete medium as that for the respective cancer/tumor cell line. […] Specifically, each of the aforesaid commercially available agents was subjected to the method described below to prepare comparative test samples. A proper amount of a respective commercially available agent was dissolved in phosphate-buffered saline (PBS) to prepare a stock solution with a concentration of 5 mg/mL, followed by using a membrane filter with a pore size of 0.22 μm to conduct vacuum filtration and sterilization. The resulting stock solution was diluted with a respective complete medium shown in Table 3 below to form comparative test samples with different concentrations. To be specific, the comparative test samples prepared from the respective commercially available agent have the concentrations shown in Table 2 below. The thus obtained comparative test samples to be used for treating a respective cancer/tumor cell line shown in Table 3 were prepared using the same complete medium as that for the respective cancer/tumor cell line. […] The cultivation of each cancer/tumor cell line is described as follows. […] Afterwards, a cell suspension having a cell density of 1.0×10^4 cells/mL was prepared. […] As experimental groups, the tumor/cancer cells of each cell line were treated with the test tea samples prepared from one or more of the tea products and the comparative test samples prepared from one or more of the commercially available agents as obtained in section B of this example (for more detailed information about the tea product(s) and the commercially available product (s) used to treat each cell line, please see Table 4 below). To be specific, 6 to 10 test tea samples prepared from the same tea product and having different concentrations, as well as 6 to 10 comparative test samples prepared from the same commercially available agent and having different concentrations, were utilized to treat the tumor/cancer cells of each cell line. For each experimental group, 6 repetitions of tumor/cancer treatment were performed. For the control group, 100 μL of PBS was added to a well containing the medium and the cancer/tumor cells of the respective cell line. For the blank group, 100 μL of PBS was added to a well containing a complete medium the same as that used for cultivation of the cancer/tumor cells of the respective cell line. After the treatment described above, cultivation was conducted in an incubator (37° C., 100% relative humidity, 5% CO2) for 48 hours. Subsequently, the liquid containing the medium and the sample in the well was removed, and a respective complete medium (shown in Table 3 above) containing 10% CCK-8 (Cell Counting Kit-8)(Dojindo Molecular Technologies, Inc., Cat. No. CK04-13) was added. Cultivation was performed in an incubator (37° C.) for 2 to 4 hours, followed by gently shaking.

Assay [3] relates to human leukemia cell line HL-60. The assay is described as follows: In vitro antitumor/anticancer testing (CCK-8), HL-60. Particulars: Homo sapiens, HL-60, 48 h. Here is the method: as §1
Setting [4] is: 0.125 μg/mL, read-out: Percent growth inhibition.
The mark [5] stands for this setting: 0.25 μg/mL, read-out: Percent growth inhibition.
Where [6] appears, read: 0.5 μg/mL, read-out: Percent growth inhibition.
[7] abbreviates: 1 μg/mL, read-out: Percent growth inhibition.
The mark [8] stands for this setting: 2 μg/mL, read-out: Percent growth inhibition.
Where [9] appears, read: 4 μg/mL, read-out: Percent growth inhibition.
The mark [10] stands for this setting: 8 μg/mL, read-out: Percent growth inhibition.
[11] abbreviates: 16 μg/mL, read-out: Percent growth inhibition.
[12] abbreviates: 32 μg/mL, read-out: Percent growth inhibition.

Take `COc1cccc2c1C(=O)c1c(O)c3c(c(O)c1C2=O)C[C@@](O)(C(=O)CO)C[C@@H]3O[C@H]1C[C@H](N)[C@@H](O)[C@H](C)O1` [Epirubicin]: the inhibition at 0.125 µg/mL amounted to 32.7% in assay [1] (setting [4]) and 6.31% in assay [2] (setting [4]). Further, the figures for the inhibition at 0.25 µg/mL in assay [1] (setting [5]) and in assay [2] (setting [5]) were 48% and 17.4%, respectively. Moreover, the figures for the inhibition at 0.5 µg/mL in assay [1] (setting [6]) and in assay [2] (setting [6]) were 55.1% and 22.4%, respectively. Further, the inhibition at 1 µg/mL in assay [1] (setting [7]) stood at 66.1%; in assay [2] (setting [7]), 33.4%. In addition, the inhibition at 2 µg/mL in assay [1] (setting [8]) stood at 74%; in assay [2] (setting [8]), 53.5%. Further, the inhibition at 4 µg/mL in assay [1] (setting [9]) turned out to be 82%; in assay [2] (setting [9]) it was 72.6%. The inhibition at 8 µg/mL in assay [1] (setting [10]) stood at 82.8%. In addition, in assay [1] (setting [11]), the inhibition at 16 µg/mL was 81.6%. For the same compound, the inhibition at 32 µg/mL in assay [1] (setting [12]) amounted to 85.6%. Also, the IC50 stood at 0.334 mg/L (≈ 0.614 µM) in assay [1] (PC-3, read-out: IC50) and 1.7 mg/L (≈ 3.14 µM) in assay [2] (read-out: IC50). The inhibition at 0.015625 µg/mL in assay [2] (0.015625 μg/mL, read-out: Percent growth inhibition) is 8.91%. For the same compound, the inhibition at 0.03125 µg/mL in assay [2] (0.03125 μg/mL, read-out: Percent growth inhibition) worked out at 1.2%. Also, the inhibition at 0.0625 µg/mL in assay [2] (0.0625 μg/mL, read-out: Percent growth inhibition) was 2.5%.

Turning to `COc1cc([C@@H]2c3cc4c(cc3[C@@H](O[C@@H]3O[C@@H]5CO[C@@H](C)O[C@H]5[C@H](O)[C@H]3O)[C@H]3COC(=O)[C@H]23)OCO4)cc(OC)c1O` [Etoposide], in assay [3] (setting [4]), the inhibition at 0.125 µg/mL came to 62.4%. In addition, the inhibition at 0.25 µg/mL in assay [3] (setting [5]) was found to be 73.6%. For the same compound, the inhibition at 0.5 µg/mL in assay [3] (setting [6]) came to 82.9%. In addition, the inhibition at 1 µg/mL in assay [3] (setting [7]) was found to be 97.8%. Also, in assay [3] (setting [8]), the inhibition at 2 µg/mL is 100%. Further, in assay [3] (setting [9]), the inhibition at 4 µg/mL came out at 100%. Besides, the inhibition at 8 µg/mL in assay [3] (setting [10]) came to 100%. For the same compound, the inhibition at 16 µg/mL in assay [3] (setting [11]) was 101%. For the same compound, the inhibition at 32 µg/mL in assay [3] (setting [12]) came out at 100%. In addition, the IC50 in assay [3] (read-out: IC50) came to 0.0855 mg/L (≈ 0.145 µM).

Broadly, the inhibition is the change of the read-out against control, counted positive when it falls. What is called IC50 is the concentration at which inhibition is half-maximal.
